Results reported in patent US7323456B2, “Carboxylic acid derivatives compounds and agents comprising the compounds as active ingredient” (Ono Pharmaceutical Co., Ltd., priority 2001, dated 2008).

Legend:
human PPAR α = biological target: T1, human PPAR α (Homo sapiens, UniProt Q07869); assay: Luciferase assay of PPAR α agonistic activity (Gal4-PPAR chimeric receptor, CV-1 cells); type: cell-based; settings: compound 10 μM, luciferase activity of carbacyclin (10 μM) defined as 1.0, 42 hours
T1 construct: expressed in transfected cells; host or cells: CV-1 cells
T1 sequence (Q07869 167-468): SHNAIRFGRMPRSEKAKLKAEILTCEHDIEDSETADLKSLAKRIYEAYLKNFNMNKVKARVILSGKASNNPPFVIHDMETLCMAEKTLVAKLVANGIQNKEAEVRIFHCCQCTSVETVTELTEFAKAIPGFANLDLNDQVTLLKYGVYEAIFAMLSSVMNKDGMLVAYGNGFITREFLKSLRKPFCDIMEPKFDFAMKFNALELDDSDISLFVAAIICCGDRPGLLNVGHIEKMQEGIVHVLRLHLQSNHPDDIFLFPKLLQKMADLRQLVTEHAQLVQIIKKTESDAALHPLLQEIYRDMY

human PPAR γ = biological target: T2, human PPAR γ (Homo sapiens, UniProt P37231); assay: Luciferase assay of PPAR γ agonistic activity (Gal4-PPAR chimeric receptor, CV-1 cells); type: cell-based; settings: compound 10 μM, luciferase activity of troglitazone (10 μM) defined as 1.0, 42 hours
T2 construct: expressed in transfected cells; host or cells: CV-1 cells
T2 sequence (P37231 204-505): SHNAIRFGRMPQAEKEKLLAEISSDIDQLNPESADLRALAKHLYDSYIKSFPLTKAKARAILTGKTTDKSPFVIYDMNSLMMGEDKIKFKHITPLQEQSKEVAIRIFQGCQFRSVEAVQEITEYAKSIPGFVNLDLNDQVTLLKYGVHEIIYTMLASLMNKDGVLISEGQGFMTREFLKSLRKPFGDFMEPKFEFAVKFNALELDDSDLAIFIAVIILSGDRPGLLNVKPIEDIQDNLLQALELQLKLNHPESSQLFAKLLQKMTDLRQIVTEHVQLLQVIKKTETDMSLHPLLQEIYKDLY

C=CCN(CC(=O)O)Cc1cccc(OCCc2nc(-c3ccc(N4CCCCCC4)nc3)oc2C)c1 [Example 2, 2-(N-allyl-N-(3-(2-(2-(6-(perhydroazepin-1-yl)pyridin-3-yl)-5-methyloxazol-4-yl)ethoxy)benzyl)amino)acetic acid]
Relative Activity to a positive control compound (carbacyclin = 1) (human PPAR α): 0.9 | Relative Activity to a positive control compound (troglitazone = 1) (human PPAR γ): 11.5
